The target of data set [1] is T1, mushroom tyrosinase (Agaricus bisporus, UniProt C7FF04).
T1 construct: purchased Sigma-Aldrich (St. Louis, MO, USA)
Description: Mushroom tyrosinase activity inhibition assay (L-tyrosine or L-dopa as substrate). It counts as biochemical. Particulars: for IC50: mushroom tyrosinase, 37 °C, mean ± SEM of triplicates. On the procedure:
3.3. Tyrosinase Activity Assay Using Mushroom Tyrosinase
The tyrosinase inhibitory activity of the 2-phenylbenzoxazoles was evaluated using a mushroom tyrosinase activity assay, following a previously described method. An aqueous substrate mixture, consisting of phosphate buffer (pH 6.5; 17.2 mM) and L-tyrosine or L-dopa (345 μM), was prepared. A 96-well plate containing the test sample in dimethyl sulfoxide (DMSO) solution (10 μL), aqueous mushroom tyrosinase solution (20 μL; 200 units), and aqueous substrate mixture (170 μL) in each well was incubated at 37 °C for 15 min for L-dopa and 30 min for L-tyrosine, respectively.

The target of data set [2] is T1, mushroom tyrosinase. Description: Kinetic study using mushroom tyrosinase (Lineweaver–Burk and Dixon plots). It counts as biochemical. Particulars: for inhibition mode (Lineweaver–Burk plots): substrate L-dopa 0.5–16 mM; for Ki: substrate L-dopa 1, 2, 4, 8 mM, read-out: inhibition constant Ki (Dixon plot). On the procedure: For the inhibition mechanism study of the 2-phenylbenzoxazole compounds, kinetic studies of mushroom tyrosinase were conducted. […] Kinetic experiments were performed using various concentrations of L-dopa. Lineweaver–Burk plots were obtained for each compound by plotting the inverse of the L-dopa concentration against the inverse of the initial rate of dopachrome production (Figure 4). In the Lineweaver–Burk plots (Figure 4B,C), the lines for compounds 8 and 13 merged at one point on the y-axis, whereas the lines for 3 (Figure 4A) merged at one point in the second quadrant.
These Dixon plots were obtained by plotting the inhibitor concentration against the inverse of the initial dopachrome production rate (Figure 5). The four lines for each Dixon plot were merged at one point in the second quadrant. The absolute x-coordinate of each merged point represents the Ki value of each compound.
3.4. Kinetic Study Experiment Using Mushroom Tyrosinase
Mushroom tyrosinase was incubated with 2-phenylbenzoxazole inhibitors (3, 8, or 13) in the presence of various concentrations (0.5–16 mM) of L-dopa to measure the initial dopachrome production rate. An aqueous substrate mixture, consisting of phosphate buffer (pH 6.5; 17.2 mM) and L-dopa (345 μM), was prepared. A 96-well plate containing the inhibitor DMSO solution (10 μL), aqueous mushroom tyrosinase solution (20 μL; 20 units), and aqueous substrate mixture (170 μL) in each well was incubated for 20 min at 37 °C. During incubation, the absorbance at 475 nm was recorded at 5 min intervals using an ELISA reader to prepare Lineweaver–Burk plots for each inhibitor.

Data set [3] relates to B16F10 cells. Description: B16F10 cell viability assay (EZ-Cytox). It counts as cell-based, murine. Particulars: 0, 1, 2, 5 μM. The protocol:
Since the 2-phenylbenzoxazole compounds 3, 8, and 13 were identified as being potent mushroom tyrosinase inhibitors, they were used in B16F10-cell-based experiments. Before assessing the biological impact of compounds 3, 8, and 13 in the B16F10 cells, the effect of these compounds on B16F10 cell viability was evaluated. The cells were treated with the compounds at concentrations of 0, 1, 2, and 5 μM for 48 and 72 h, respectively.
3.7. B16F10 Cell Viability Assay
Test samples (3, 8, and 13) were added to each well at final concentrations of 0, 1, 2, and 5 μM and cultivated for 48 and 72 h, respectively. Each well was treated with 10 μL of EZ-Cytox solution (EZ-1000®, DoGenBio, Seoul, Republic of Korea) and cultivated for 2 h. The absorbance of each well was measured at 450 nm using an ELISA reader.

The subject of data set [4] is B16F10 cells. Description: Cellular melanin content assay in B16F10 cells. Particulars: 72 h; for melanin content in B16F10 cells: 1, 2, 5 μM, α-MSH 1 μM + IBMX 200 μM; for melanin content in B16F10 cells at 5 μM vs kojic acid: compound 5 μM, kojic acid 5 μM, α-MSH + IBMX. It counts as cell-based, murine. The protocol: The B16F10 cells were exposed to each compound (1, 2, and 5 μM) for 1 h. Following this, stimulators (1 μM α-MSH [α-melanocyte-stimulating hormone] and 200 μM IBMX [3-isobutyl-1-methylxanthine]) were treated for 72 h. Kojic acid (5 μM) was utilized as a comparative control.
3.8. Cellular Melanin Content Level Assay in B16F10 Cells
The effects of compounds 3, 8, and 13 on B16F10 cellular melanin production were investigated using a previously reported method. B16F10 cells (5 × 10^3 cells per well) were seeded in a 6-well plate and cultured under the same conditions as the cell culture for 24 h. […] Stimulators, including 1 μM α-melanocyte-stimulating hormone (α-MSH) and 200 μM 3-isobutyl-1-methylxanthine (IBMX), were then added. After 72 h of cultivation, the cells were rinsed with PBS, detached from the bottom of each well using Trypsin-EDTA, and centrifuged for 10 min at 10,000× g and 4 °C. The obtained pellets were lysed with 100 μL of 1N-NaOH solution for 1 h at 60 °C and transferred to a 96-well plate. The optical density was measured at 405 nm using an ELISA reader. Normalization was conducted using a Pierce BCA Protein Assay Kit (Thermo Scientific, MA, USA).
Melanin content (%) = (ΔODsam/ΔODcon) × 100%, where ODsam and ODcon represent the optical densities of the sample and control, respectively.

The nature of data set [5]: ABTS radical cation scavenging assay. Particulars: 100 μM. On the procedure: For ABTS^+• scavenging experiments, ABTS^+• was generated by oxidizing ABTS using potassium persulfate. All test samples (Trolox [TR; positive material] and 1–15) were used at a final concentration of 100 μM. […] Both compounds share a common catechol structure. […] Similar results were obtained in the DPPH radical scavenging experiment. […] Compounds 4, 9, and 14, bearing a 4-hydroxy-3-methoxyphenyl, scavenged ABTS^+• moderately (23–51%).
3.15. 2,2′-Azino-bis(3-ethylbenzothiazoline-6-sulfonic Acid) (ABTS) Radical Cation Scavenging Assay
The effect of the 2-phenylbenzoxazole compounds 1–15 on radical scavenging was assessed using an ABTS assay, as previously reported. An ABTS aqueous solution (7 mM) was mixed with a K2S2O8 aqueous solution (2.45 mM) in equal volumes (each 20 mL) and incubated in the dark for 20 h at 25 °C to generate ABTS^+•. The ABTS^+• solution was then diluted with pure EtOH to adjust the absorbance of the solution to 0.7 ± 0.02 at 730 nm. The test samples (1–15 and Trolox [positive control]) were dissolved in a co-solvent of EtOH and DMSO (9:1, v/v) to make a 1 mM solution. The diluted ABTS^+• solution was mixed with the test sample solution at a volume ratio of 9:1 (90 μL:10 μL) and the mixture was stored for 2 min at 20 °C in the dark. The optical density was measured at 730 nm using an ELISA reader at 1 min intervals for 10 min. All test samples were used at a final concentration of 100 µM.
ABTS^+• radical scavenging activity (%) = [(ODcon − ODsam)/ODcon] × 100, where ODsam and ODcon represent the absorbances of the test sample and the control, respectively.

For data set [6], the system named is B16F10 tyrosinase in situ. Particulars: compounds 1, 2, 5 μM; kojic acid 5 μM; α-MSH + IBMX 72 h; excess L-dopa.
Description: To evaluate the effect of the compounds on in situ tyrosinase activity, an experiment using B16F10 cells was performed as previously described [34, 35]. […] Excess L-dopa was added to increase their melanin production prior to the acquisition of cell images.
In Situ Tyrosinase Activity Assay Using B16F10 Cells and L-dopa
In situ tyrosinase activity was measured in B16F10 cells using L-dopa, as reported previously [34]. […] The cells were processed as follows: (1) fixing with 4% paraformaldehyde for 40 min, (2) washing with PBS, and (3) permeabilizing with 0.1% Triton X-100 for 2 min. After washing with PBS, the cells were stained with L-dopa (2 mM; 500 μL) at 37 °C for 2 h. Stained images were collected using a camera connected to a microscope (Motic, Hong Kong).
The mark [7] stands for this setting: substrate L-dopa, 15 min, read-out: IC50 Values, L-Dopa.
Where [8] appears, read: substrate L-tyrosine, 30 min, read-out: IC50 Values, L-Tyrosine.

Each structure is given as a SMILES string. Like-named read-outs stand apart in the source and are kept apart here.

T1 sequence (C7FF04 1-392 limits assumed): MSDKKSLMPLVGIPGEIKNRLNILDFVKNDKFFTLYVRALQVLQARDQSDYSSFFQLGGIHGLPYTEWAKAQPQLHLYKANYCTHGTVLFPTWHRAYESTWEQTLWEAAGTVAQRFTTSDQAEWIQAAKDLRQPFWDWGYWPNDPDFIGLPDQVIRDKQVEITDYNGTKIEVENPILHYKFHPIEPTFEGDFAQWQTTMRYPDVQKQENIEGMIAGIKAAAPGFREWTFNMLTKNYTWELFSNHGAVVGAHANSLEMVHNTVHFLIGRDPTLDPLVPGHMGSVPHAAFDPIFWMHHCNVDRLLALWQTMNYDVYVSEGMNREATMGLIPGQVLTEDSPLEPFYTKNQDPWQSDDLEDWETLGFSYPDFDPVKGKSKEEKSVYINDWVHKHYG

As a reminder, the IC50 is the concentration that gives 50% inhibition. As to `Cc1ccc2nc(-c3ccc(O)cc3O)oc2c1` [Compound 3, 4-(6-Methylbenzo[d]oxazol-2-yl)benzene-1,3-diol], in data set [1] (setting [7]), the IC50 came to 16.8 ± 0.57 µM. In addition, the concentration for half-maximal inhibition (IC50) in data set [1] (setting [8]) is 0.51 µM. For the same compound, in data set [1] (substrate L-tyrosine), the “tyrosinase potency relative to kojic acid” value is given as 28 times. In addition, the “inhibition mode (Lineweaver–Burk plots)” value in data set [2] was “mixed-type inhibitor”. In addition, in data set [3], the “cytotoxicity to B16F10 cells, 48 h” value was “not cytotoxic” and the “cytotoxicity to B16F10 cells, 72 h” value was “weak cytotoxicity at the highest concentration tested”. For the same compound, in data set [4], the “melanin content in B16F10 cells” value is “decreased the melanin content in a concentration-dependent manner” and the “melanin content in B16F10 cells at 5 μM vs kojic acid” value was “decreased the melanin content levels much more strongly than kojic acid”. In addition, the “ABTS+• scavenging activity (% inhibition)” value in data set [5] is given as 57%. In data set [6], the “melanin formation, in situ tyrosinase activity in B16F10 cells” value (shortened to “melanin formation”) is given as “reduced melanin formation in a concentration-dependent manner”.

As a reminder, the Ki is the dissociation constant of the complex between target and ligand, obtained from inhibition or displacement. In the case of `Oc1ccc(-c2nc3ccc(Cl)cc3o2)c(O)c1` [Compound 8, 4-(6-Chlorobenzo[d]oxazol-2-yl)benzene-1,3-diol], in data set [1] (setting [7]), the half-maximal inhibitory concentration (IC50) is 20.4 ± 1.99 µM. The IC50 in data set [1] (setting [8]) was 2.22 ± 0.16 µM. In data set [2], the “inhibition mode (Lineweaver–Burk plots)” value is recorded as “competitive inhibitors” and the Ki came out at 12.5 µM. In data set [3], the “cytotoxicity to B16F10 cells, 48 h” value is reported as “not cytotoxic” and the “cytotoxicity to B16F10 cells, 72 h” value is “did not show cytotoxicity”. In data set [4], the “melanin content in B16F10 cells” value is “decreased the melanin content in a concentration-dependent manner” and the “melanin content in B16F10 cells at 5 μM vs kojic acid” value is “decreased the melanin content levels much more strongly than kojic acid”. Also, the “ABTS+• scavenging activity (% inhibition)” value in data set [5] turned out to be 64%. Also, in data set [6], the “melanin formation” value is given as “reduced melanin formation in a concentration-dependent manner”.

Consider `Cc1ccc2oc(-c3ccc(O)cc3O)nc2c1` [Compound 13, 4-(5-Methylbenzo[d]oxazol-2-yl)benzene-1,3-diol], for which, in data set [1] (setting [7]), the IC50 was determined as 20.8 ± 1.02 µM. Further, the IC50 in data set [1] (setting [8]) was 3.5 ± 0.07 µM. In addition, in data set [2], the “inhibition mode (Lineweaver–Burk plots)” value is reported as “competitive inhibitors” and the Ki is 17.2 µM. For the same compound, in data set [3], the “cytotoxicity to B16F10 cells, 48 h” value is “not cytotoxic” and the “cytotoxicity to B16F10 cells, 72 h” value is listed as “did not show cytotoxicity”. Further, the “melanin content in B16F10 cells” value in data set [4] was “decreased the melanin content in a concentration-dependent manner”. Also, the “ABTS+• scavenging activity (% inhibition)” value in data set [5] came to 54%. Further, the “melanin formation” value in data set [6] is “reduced melanin formation in a concentration-dependent manner”.

The values above are taken from PMC11396935, “Exploration of Compounds with 2-Phenylbenzo[d]oxazole Scaffold as Potential Skin-Lightening Agents through Inhibition of Melanin Biosynthesis and Tyrosinase Activity” (Molecules, 2024).
